Here are results for 11 molecules from patent publication US8177896B2, “Antifouling furan-2-one derivatives” (The Hong Kong University of Science and Technology, priority 2008, dated 2012).

Data set [1] can be described thus: Larval settlement bioassay, barnacle Balanus amphitrite cyprids. The following applies: Balanus amphitrite (barnacle), cyprid larvae, in vivo, other: immersion, sample added to the seawater in the well. The format is in vivo. Here is the method: (§1) The nauplii were reared in freshly filtered nature seawater (FSW, 0.45 μm, 32 S salinity) and fed with Chaetoceros gracilis Schutt at 24° C. in the Coastal Marine Laboratory the Hong Kong University of Science and Technology (HKUST). Cyprids were stored for 2 days at 8° C. (aged cyprids) prior to being used in the bioassays. Ten μl of each test sample dissolved in dimethyl sulfoxide (DMSO) were transferred into a well in 24-well polystyrene plate after the addition of 1 ml of FSW. The control wells contained 1 ml of FSW and 10 μl of DMSO. About 15 cyprids were added in each well with triplicate samples being tested.

Data set [2] concerns Balanus amphitrite larvae. Described as above. The settings on record: for inhibition of larval settlement (in words) / concentration at which significant inhibition of larval settlement was observed: B. amphitrite; for toxicity rating from LC50/EC50 ratio: according to Avelin et al. 1993 and Rittschof et al. 1994, ratios for all tested larvae; for concentration at which significant inhibition of larval settlement was observed: compared with controls. It counts as in vivo. On the procedure:
as §1

Data set [3] in a line: Larval settlement bioassay, Hydroides elegans competent larvae. The format is in vivo. The following applies: competent larvae, in vivo, other: immersion, sample added to the seawater in the well; Hydroides elegans; highest concentration examined causing <50% death of larvae. On the procedure:
(§2) The 24-well plates were incubated at 28° C. for 24 h under a 15 h light/9 h dark photoperiod. The percentage of larval settlement and larval mortality was determined by counting the settled, live individuals under a dissecting microscope and expressing the result as a proportion of the total number of larvae in the well.

The test system of another data set is Hydroides elegans larvae. The data set is described as above. It counts as in vivo. The settings on record: for inhibition of larval settlement (in words) / concentration at which significant inhibition of larval settlement was observed: H. elegans; for EC50: Hydroides elegans, 24 h, mean of at least three replicates, read-out: EC50 against larval settlement; for concentration at which significant inhibition of larval settlement was observed: compared with controls. Here is the method: as §2

The nature of data set [4]: Degradation in buffer solutions and seawater. The format is physicochemical.
A short description of another data set: in vivo. The settings on record: Bugula neritina, larvae.
A further data set concerns Bugula neritina larvae. Put plainly: Larval settlement bioassay, Bugula neritina. The following applies: for inhibition of larval settlement (in words): B. neritina.
The mark [5] stands for this setting: Balanus amphitrite, highest concentration examined causing <50% death of larvae.
Where [6] appears, read: Table 3, Balanus amphitrite larvae.
Setting [7] is: Amphibalanus amphitrite, 24 h, Balanus amphitrite, 24 h, mean of at least three replicates, read-out: EC50 against larval settlement.
[8] abbreviates: Amphibalanus amphitrite, Table 3, Balanus amphitrite larvae, value ± spread, read-out: EC50.
Setting [9] is: Table 3, Balanus amphitrite larvae, value ± spread.

In brackets after ≈: the same amount, converted by molar mass. Read-outs that look alike come from different tables or passages of the source.

Regarding `CCCCCCCCC1C=CC(=O)O1` (centres unmarked) [Compound 6, 5-octylfuran-2-one], the LC50 at 24 h in data set [1] (setting [5]) is greater than 50 µg/mL; in data set [1] (setting [6]) it was greater than 50 µg/mL; in data set [3], greater than 2 µg/mL. Further, the results for the concentration giving a half-maximal response (EC50) (in data set [2] (setting [7]); in data set [2] (setting [8]); in the data set with Hydroides elegans larvae) were 0.52 µg/mL (≈ 2.65 µM), 0.52 ± 0.06 µg/mL (≈ 2.65 µM) and 0.017 µg/mL (≈ 0.0866 µM), respectively. Also, the “inhibition of larval settlement (in words)” value (shortened to “inhibition … (in words)”) (in data set [2]; with Hydroides elegans larvae; in the data set with Bugula neritina larvae) was “distinct inhibition effects” throughout. For the same molecule, the “toxicity rating from LC50/EC50 ratio” value in data set [2] is given as “nontoxic or low toxic compound”. Besides, the “degradation in natural seawater” value in data set [4] is on record as “can be easily degradated in natural seawater”. In “in vivo”, this molecule gave an LC50 greater than 50 µg/mL. The “EC50 against larval settlement” value in the data set on Bugula neritina larvae (Bugula neritina, mean of at least three replicates) worked out at 0.2 µg/mL (≈ 1.02 µM).
As for `CC(O)C(C)(O)CCCC1C=CC(=O)O1` (centres unmarked) [Compound 8], the LC50 in data set [2] (setting [6]) was greater than 100 µg/mL. The same molecule showed a half-maximal effective concentration (EC50) in data set [2] (setting [9]) greater than 100 µg/mL.
For the molecule `CC(=O)C(C)CCCCCC1C=CC(=O)O1` (centres unmarked) [Compound 3], the LC50 at 24 h in data set [1] (setting [5]), in data set [1] (setting [6]) and in data set [3] was greater than 100 µg/mL throughout. In addition, the values for the EC50 (in data set [2] (setting [7]); in data set [2] (setting [8]); in the data set with Hydroides elegans larvae) were 8.67 µg/mL (≈ 38.7 µM), 8.67 ± 2.73 µg/mL (≈ 38.7 µM) and 5.6 µg/mL (≈ 25 µM), respectively. In addition, the “concentration at which significant inhibition of larval settlement was observed” value came to 25 µg/mL in data set [2] and 5 µg/mL with Hydroides elegans larvae.
Consider `CC(CCCCCC1C=CC(=O)O1)C(C)OC1CCCCO1` (centres unmarked) [Compound 5], for which the median lethal concentration (LC50) at 24 h in data set [1] (setting [5]) was greater than 80 µg/mL; in data set [1] (setting [6]) it was greater than 80 µg/mL; in data set [3], greater than 100 µg/mL. Moreover, the concentration giving a half-maximal response (EC50) in data set [2] (setting [7]) was determined as 3.6 µg/mL (≈ 11.6 µM); in data set [2] (setting [8]), 3.6 ± 0.56 µg/mL (≈ 11.6 µM); with Hydroides elegans larvae, 6.4 µg/mL (≈ 20.6 µM). For the same molecule, the “inhibition … (in words)” value (in data set [2]; in the data set on Hydroides elegans larvae; in the data set with Bugula neritina larvae) was “distinct inhibition effects” throughout. The “toxicity rating from LC50/EC50 ratio” value in data set [2] is listed as “nontoxic or low toxic compound”.
With `CC(O)C(C)CCCCCC1C=CC(=O)O1` (centres unmarked) [Compound 2], the LC50 at 24 h in data set [1] (setting [5]), in data set [1] (setting [6]) and in data set [3] was greater than 100 µg/mL each time. Besides, the EC50 came out at 9.65 µg/mL (≈ 42.6 µM) in data set [2] (setting [7]), 9.65 ± 1.5 µg/mL (≈ 42.6 µM) in data set [2] (setting [8]) and 4.4 µg/mL (≈ 19.4 µM) in the data set with Hydroides elegans larvae. Further, the “concentration at which significant inhibition of larval settlement was observed” value turned out to be 10 µg/mL in data set [2] and 5 µg/mL with Hydroides elegans larvae.
Turning to `CCC(C)(O)CCCCCC1C=CC(=O)O1` (centres unmarked) [Compound 1], the LC50 at 24 h in data set [1] (setting [5]), in data set [1] (setting [6]) and in data set [3] was greater than 100 µg/mL in each case. Moreover, the EC50 in data set [2] (setting [7]) stood at 14.8 µg/mL (≈ 65.4 µM); in data set [2] (setting [8]) it was 14.8 ± 5.54 µg/mL (≈ 65.4 µM); in the data set with Hydroides elegans larvae, 12 µg/mL (≈ 53 µM). Moreover, the “concentration at which significant inhibition of larval settlement was observed” value (in data set [2]; in the data set on Hydroides elegans larvae) was 10 µg/mL each time.
Turning to `CC(C)(O)CCCCCC1C=CC(=O)O1` (centres unmarked) [Compound 4], the LC50 at 24 h in data set [1] (setting [5]) was greater than 140 µg/mL; in data set [1] (setting [6]) it was greater than 140 µg/mL; in data set [3] it was greater than 40 µg/mL. Besides, the EC50 in data set [2] (setting [7]) was greater than 100 µg/mL; in data set [2] (setting [8]), greater than 100 µg/mL; with Hydroides elegans larvae, 12.7 µg/mL (≈ 59.8 µM). In addition, the “inhibition … (in words)” value in data set [2] is given as “efficient against the larval settlements especially for B. amphitrite”. In addition, the “concentration at which significant inhibition of larval settlement was observed” value in the data set on Hydroides elegans larvae was determined as 8 µg/mL.
Turning to `CC(O)C(C)(O)CCCC1C=CC(=O)O1` (single isomer, unassigned) [Compound 11], in data set [1] (setting [6]), the 50% lethal concentration (LC50) at 24 h was greater than 100 µg/mL. In data set [2] (setting [8]), the half-maximal effective concentration (EC50) was greater than 100 µg/mL.
With `CC(O)C(C)(O)CCCC1C=CC(=O)O1` (centres unmarked) [Compound 10], the LC50 in data set [2] (setting [6]) is greater than 100 µg/mL. The molecule further returned an EC50 in data set [2] (setting [9]) greater than 100 µg/mL.
For `CC(O)C(C)(O)CCCC1C=CC(=O)O1` (centres unmarked) [Compound 7], in data set [2] (setting [6]), the median lethal concentration (LC50) is greater than 25 µg/mL. In data set [2] (setting [9]), the concentration for a half-maximal effect (EC50) turned out to be 4.82 ± 1.25 µg/mL (≈ 22.5 µM).
Consider `CC(O)C(C)(O)CCCC1C=CC(=O)O1` (centres unmarked) [Compound 9], for which the LC50 in data set [2] (setting [6]) is greater than 100 µg/mL. In data set [2] (setting [9]), the EC50 was greater than 100 µg/mL.

By LC50 is commonly meant the concentration that kills 50% of the test population. A higher LC50 goes with lower toxicity. As a reminder, the EC50 is the concentration needed to bring the measured effect to its halfway point.
